What was measured:
OCT3 = OCT3 (Homo sapiens (Human), UniProt O75751); details: Non Patent Literature 1; read-out: IC50 (reported); cited from earlier work
[1] = measured Brain/Blood verification experiment in BALB/c mice; format: in vivo; details: mouse, 5 mg/kg, five minutes after administration, brain homogenate vs plasma
Procedure: The Brain/Blood value predicted with the above method was verified with an experiment using BALB/c mice. As test substances in the verification experiment, two compounds of SR-4277 and Famotidine were used. […] The test substance was administered in 5 mg/kg to the mice. The mice were anesthetized in advance with isoflurane, and exsanguination was performed from the vena cava of the mice five minutes after the administration. Brains were removed, and weights thereof were measured. After that, a brain homogenate was prepared. The collected blood was subjected to centrifugation, and plasma was thereby prepared. Concentrations of the test substance in plasma and the brain homogenate were measured with HPLC and MS.

ddY male mice = assay: forced swimming test; format: in vivo; details: low dose administered alone (imipramine 4 mg/kg or OCT3 inhibitor 0.25 μl/hr)
Procedure: In this forced swimming test, mice or rats as test animals are forced to swim in water tanks from which the mice or rats cannot escape. Then, an immobility behavior of the test animals after an escape behavior thereof (a state in which only the head is above the water surface and the test animals are floating without moving the hands or feet) is observed. When the test animals are put into the water tanks again 24 hours or more later, the immobility behavior is expressed earlier than in the first experiment. Duration of this immobility behavior for a certain time (usually about 5 minutes) is relatively accurately reproduced.
Specifically, a test is performed as follows.
In an experiment, ddY male mice each weighing 28 to 33 g (Japan SLC, Inc.) are used. […] After being acquired, these mice are bred in a room in which temperature (22 to 24° C.), humidity (50 to 60%), and lighting (lighting 8:00 to 20:00) are controlled for three or more days. In the first forced swimming test, all the experimental mice are forced to swim in glass cylinders (diameter 15.5 cm, depth 17 cm, water depth 12 cm, water temperature 25° C.) for 300 seconds to measure immobility time. The mice are distributed into experimental groups (an OCT3 inhibitor-administrated group, a positive control group, and a negative control group) such that an average value of the immobility time is almost the same. […]

Chain of OCT3 (O75751 whole entry): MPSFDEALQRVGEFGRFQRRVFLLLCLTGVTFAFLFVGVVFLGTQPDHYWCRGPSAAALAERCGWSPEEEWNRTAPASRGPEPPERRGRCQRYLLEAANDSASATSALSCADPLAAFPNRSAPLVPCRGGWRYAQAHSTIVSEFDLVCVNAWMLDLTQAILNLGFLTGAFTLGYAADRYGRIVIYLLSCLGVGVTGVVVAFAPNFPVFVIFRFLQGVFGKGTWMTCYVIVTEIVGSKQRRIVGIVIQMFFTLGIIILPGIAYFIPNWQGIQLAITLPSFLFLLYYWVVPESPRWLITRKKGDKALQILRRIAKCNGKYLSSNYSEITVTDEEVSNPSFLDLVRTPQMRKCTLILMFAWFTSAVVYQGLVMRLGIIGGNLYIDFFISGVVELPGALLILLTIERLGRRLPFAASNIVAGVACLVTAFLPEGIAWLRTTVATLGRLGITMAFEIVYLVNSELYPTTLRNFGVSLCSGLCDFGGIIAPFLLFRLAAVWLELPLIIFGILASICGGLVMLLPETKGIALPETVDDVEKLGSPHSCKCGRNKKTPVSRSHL

Kp at 5 min [1]	Structure (SMILES)	IC50 (OCT3) [µM]	average value of the immobility time (ddY male mice)
–	CN/C(=N/CCSCc1nc[nH]c1C)NC#N [cimetidine]	240	–
0.1	NC(N)=Nc1nc(CSCCC(N)=NS(N)(=O)=O)cs1 [Famotidine]	20	–
–	CN1C2CCCC1CC(NC(=O)c1nn(C)c3ccccc13)C2 (stereo not drawn) [granisetron]	≤ 100	–
–	CN(C)CCCN1c2ccccc2CCc2ccccc21 [imipramine]	–	about 200 seconds
–	Cn1cc(C(=O)[C@@H]2CCc3nc[nH]c3C2)c2ccccc21 [ramosetron]	≤ 100	–
